Source: patent publication US20210283099A1, “CDC7 KINASE INHIBITORS AND USES THEREOF” (SLOAN-KETTERING INSTITUTE FOR CANCER RESEARCH, priority 2010, published 2021)
pIC50: −log10 of the molar value. Converted amounts (≈) assume the structure as drawn.

Assays:
[1] = tested on: ALL, Ph+; assay: Cytotoxicity assay (Alamar blue), patient leukemia sample; assay type: cell-based; details: Homo sapiens
Protocol: (§1) FIGS. 16A-16B. Granaticin A and Granaticin B inhibit multiple tumor types: The indicated cell lines and primary patient samples were tested against the compounds listed in standard cytotoxicity assays (12 point dose response using Alamar blue reduction as an indicator of cell viability). Assays were done in triplicate and IC50 determinations were run in 12-point serial dilutions from […] to 5 nM. […] These include ras and EGFR gatekeeper mutation containing cell lines in addition to p53 mutant cell lines and other known chemotherapy resistant cell lines. Specifically, this included multi-drug resistance phenotype (MDR-overexpressing) cell lines from multiple hematologic and solid tumor cell lines. Table 1 highlights a series of primary patient leukemia samples-both acute and chronic and treatment naïve and refractory tested against granaticins A and B and Derivatives 1 and 2 (see Examples).
(§2) Table 1 highlights a series of primary patient leukemia samples-both acute and chronic and treatment naïve and refractory and the effect of granaticin A, granaticin B, derivative 1, and derivative 2 to inhibit cellular proliferation. […] The two starred samples represent serial samples taken from the same patients after they received 2-3 cycles of additional high dose salvage chemotherapy and indicate that although refractory to salvage chemotherapy, the Cdc7 pathway remains a potentially efficacious target as the sensitivity to these compounds remains unchanged. Importantly, each patient sample was resistant to the prior therapy received using this assay.

[2] = tested on: AML, de novo; assay: as above; assay type: cell-based; details: Homo sapiens
Protocol: as §1, §2

[3] = tested on: AML, primary refractory 1*; assay: as above; assay type: cell-based; details: Homo sapiens, second sample from the same patient following high-dose chemotherapy
Protocol: as §1, §2

[4] = tested on: AML, primary refractory 1; assay: as above; assay type: cell-based; details: Homo sapiens
Protocol: as §1, §2

[5] = tested on: AML, primary refractory; assay: as above; assay type: cell-based; details: Homo sapiens
Protocol: as §1, §2

[6] = tested on: AML, relapsed s/p HSCT; assay: as above; assay type: cell-based; details: Homo sapiens
Protocol: as §1, §2

[7] = tested on: AML, relapsed; assay: as above; assay type: cell-based; details: Homo sapiens
Protocol: as §1, §2

[8] = tested on: AMMoL; assay: as above; assay type: cell-based; details: Homo sapiens
Protocol: as §1, §2

[9] = tested on: Biphenotypic acute leukemia 1*; assay: as above; assay type: cell-based; details: Homo sapiens, second sample from the same patient following high-dose chemotherapy
Protocol: as §1, §2

[10] = tested on: Biphenotypic acute leukemia 1; assay: as above; assay type: cell-based; details: Homo sapiens
Protocol: as §1, §2

[11] = tested on: CLL, untreated, chromosome 17 p del.; assay: as above; assay type: cell-based; details: Homo sapiens
Protocol: as §1, §2

[12] = tested on: CML, untreated; assay: as above; assay type: cell-based; details: Homo sapiens
Protocol: as §1, §2

[13] = tested on: PhALL3.1; assay: as above; assay type: cell-based, human; details: for pIC50: Homo sapiens, PhALL3.1
Protocol: as §1, §2

[14] = tested on: ALL3; assay: Cytotoxicity assay (Alamar blue); assay type: cell-based; details: Human Acute Lymphoblastic leukemia, Philadelphia chromosome positive
Protocol: as §1

[15] = tested on: H1975; assay: Cytotoxicity assay (Alamar blue); assay type: cell-based; details: NCI-H1975, Human lung adenocarcinoma, T790M/L858R EGFR mutation, R273H p53 mutation, PTEN null, wild-type KRAS
Protocol: as §1

[16] = tested on: HTB15; assay: Cytotoxicity assay (Alamar blue); assay type: cell-based; details: Human Glioblastoma (U-118MG)
Protocol: as §1

[17] = tested on: JAQU; assay: Cytotoxicity assay (Alamar blue); assay type: cell-based; details: Homo sapiens, Patient sample of relapsed/refractory pre-B cell acute lymphoblastic leukemia
Protocol: as §1

[18] = tested on: MCF-7; assay: Cytotoxicity assay (Alamar blue); assay type: cell-based; details: MCF7, human invasive breast ductal carcinoma, estrogen and progesterone receptor positive
Protocol: as §1

[19] = tested on: PAPR; assay: Cytotoxicity assay (Alamar blue); assay type: cell-based; details: Homo sapiens, Patient sample of relapsed acute myelomonocytic leukemia
Protocol: as §1

[20] = tested on: SKOV3; assay: Cytotoxicity assay (Alamar blue); assay type: cell-based; details: SK-OV-3, Human adenocarcinoma from the ovary derived from ascites, hypodiploid
Protocol: as §1

[21] = tested on: PhALL3.1 cells; assay: Caspase 3 fluorometric activity assay in G1 synchronized cells; assay type: cell-based, human; details: 10 hours following release of G1 synchronized cells
[22] = tested on: HeLa; assay: FACS and caspase-3 assay in HeLa cells; assay type: cell-based, human; details: for cell cycle profile: 24 hours (granaticin B 1 microM)
Protocol: FIGS. 23A-23C. Granaticin A and B are not cytotoxic to normal diploid cells: FIGS. 23A-23B: Granaticin B exposure is not cytotoxic to normal diploid cells. Either HeLa or RPE (retinal pigment epithelial cells, a normal human diploid cell line) cells were incubated in carrier control (DMSO) or granaticin B (1 microM) for 24 hours and samples were subjected to standard FACS analysis with the x-axis indicating DNA content (FIG. 23A). […] FIG. 23C: Granaticin A exposure is not cytotoxic to normal diploid cells. Either HeLa or RPE (retinal pigment epithelial cells, a normal diploid cell line) cells were incubated in carrier control (DMSO) or granaticin A for 24 hours and samples were subjected to standard FACS analysis with FL2 indicating DNA content.

[23] = Standard solubility studies; assay type: physicochemical
Protocol: Standard solubility studies were conducted with granaticin B. In aqueous solution, 4.0 mg/ml of granaticin B is soluble. In alcohol, >188 mg/ml of granaticin B is soluble. In methanol, >252 mg/ml of granaticin B is soluble.

[24] = tested on: OVCAR3 cells; assay: OVCAR3 intraperitoneal ovarian cancer model in SCID-Beige mice; assay type: in vivo, mouse; details: 3 mg/kg intraperitoneally daily days 7-14; imaging on day 42
Protocol: (§3) FIG. 22A-22C. Granaticin B is Effective Against Multiple Solid Tumors: granaticin B is efficacious against mouse models of melanoma (FIG. 22A), non-small cell lung cancer (FIG. 22B), and ovarian cancer (FIG. 22C). For the ovarian cancer experiments, SCID-Beige mice were injected with 5 million OVCAR3 cells that had been transduced with a GFP-firefly luciferase expressing plasmid (Frattini, M. G. and Brentjens, R. J., unpublished data). These cells were then injected intraperitoneally into 4 cohorts of mice on Day 1. From days 7-14 the mice were injected daily with the indicated concentrations of granaticin B in the intraperitoneal space. […] Nude mice were treated with 2.5 mg/kg/day granaticin B in a continuous fashion using osmotic diffusion pumps. Sections of the treated xenografts are shown after euthanasia at day 28 and H&E staining.

[25] = tested on: A459 cells; assay: Nude mouse xenograft, non small-cell lung cancer; assay type: in vivo; details: 2.5 mg/kg/day continuous, osmotic diffusion pumps; sections at day 28
Protocol: as §3

[26] = relapsed (first of two such lines, r11)
[27] = relapsed (second of two such lines, r12)

SMILES: CC1OC2CC(O)C1(O)c1c(O)c3c(c(O)c12)C(=O)C1=C(C3=O)[C@H](C)O[C@H]2CC(=O)O[C@@H]12 (stereo partly shown) [Granaticin A, granaticin A]
- pIC50 [1]: 6.25
- pIC50 [2]: 6.14
- pIC50 [3]: 6.20
- pIC50 [4]: 6.12
- pIC50 [5]: 6.11
- pIC50 [6]: 5.73
- pIC50 [7, 26]: 5.92
- pIC50 [7, 27]: 6.68
- pIC50 [8]: 6.00
- pIC50 [9]: 6.27
- pIC50 [10]: 6.52
- pIC50 [11]: 6.34
- pIC50 [12]: 6.59
- pIC50 [13]: 6.85
- activity in the cell based assays ([13]; PhALL3.1 cell line): very active
- pIC50 [14]: 6.85
- pIC50 [15]: 6.92
- pIC50 [16]: 6.19
- pIC50 [17]: 7.30
- pIC50 [18]: 6.77
- pIC50 [19]: 6.00
- pIC50 [20]: 6.92
- caspase 3 activity / apoptosis [21]: induces Caspase 3-mediated apoptosis
- cell cycle profile [22]: apoptotic cell death

SMILES: CC1OC2CC(O[C@H]3CC[C@H](O)[C@H](C)O3)C1(O)c1c(O)c3c(c(O)c12)C(=O)C1=C(C3=O)[C@H](C)O[C@H]2CC(=O)O[C@@H]12 (stereo partly shown) [Granaticin B, granaticin B]
- pIC50 [1]: 6.72
- pIC50 [2]: 6.74
- pIC50 [3]: 7.00
- pIC50 [4]: 6.96
- pIC50 [5]: 6.85
- pIC50 [6]: 6.21
- pIC50 [7, 26]: 7.00
- pIC50 [7, 27]: 7.30
- pIC50 [8]: 6.31
- pIC50 [9]: 7.00
- pIC50 [10]: 7.40
- pIC50 [11]: 6.51
- pIC50 [12]: 7.10
- pIC50 [13]: 7.52
- pIC50 [14]: 7.52
- pIC50 [15]: 7.52
- pIC50 [16]: 6.34
- pIC50 [17]: 8.00
- pIC50 [18]: 6.89
- pIC50 [19]: 6.31
- pIC50 [20]: 7.40
- solubility ([23]; organic solvent or mixture, in alcohol): > 188 mg/mL
- solubility ([23]; organic solvent or mixture, in methanol): > 252 mg/mL
- solubility ([23]; water, in aqueous solution): 4 mg/mL (≈ 7.16 mM)
- disease by luciferase imaging [24]: essentially no disease
- efficacy in mouse model of non-small cell lung cancer [25]: efficacious
- caspase-3 activation ([22]; 1 microM): only activated in HeLa cells
- cell cycle profile [22]: apoptotic cell death
